The values that follow come from publication PMC5333395, “Assessing histone demethylase inhibitors in cells: lessons learned” (Epigenetics & Chromatin, 2017).

Assay [1] addresses T1, KDM3A (Homo sapiens, UniProt Q9Y4C1).
T1 sequence (Q9Y4C1 1-1321): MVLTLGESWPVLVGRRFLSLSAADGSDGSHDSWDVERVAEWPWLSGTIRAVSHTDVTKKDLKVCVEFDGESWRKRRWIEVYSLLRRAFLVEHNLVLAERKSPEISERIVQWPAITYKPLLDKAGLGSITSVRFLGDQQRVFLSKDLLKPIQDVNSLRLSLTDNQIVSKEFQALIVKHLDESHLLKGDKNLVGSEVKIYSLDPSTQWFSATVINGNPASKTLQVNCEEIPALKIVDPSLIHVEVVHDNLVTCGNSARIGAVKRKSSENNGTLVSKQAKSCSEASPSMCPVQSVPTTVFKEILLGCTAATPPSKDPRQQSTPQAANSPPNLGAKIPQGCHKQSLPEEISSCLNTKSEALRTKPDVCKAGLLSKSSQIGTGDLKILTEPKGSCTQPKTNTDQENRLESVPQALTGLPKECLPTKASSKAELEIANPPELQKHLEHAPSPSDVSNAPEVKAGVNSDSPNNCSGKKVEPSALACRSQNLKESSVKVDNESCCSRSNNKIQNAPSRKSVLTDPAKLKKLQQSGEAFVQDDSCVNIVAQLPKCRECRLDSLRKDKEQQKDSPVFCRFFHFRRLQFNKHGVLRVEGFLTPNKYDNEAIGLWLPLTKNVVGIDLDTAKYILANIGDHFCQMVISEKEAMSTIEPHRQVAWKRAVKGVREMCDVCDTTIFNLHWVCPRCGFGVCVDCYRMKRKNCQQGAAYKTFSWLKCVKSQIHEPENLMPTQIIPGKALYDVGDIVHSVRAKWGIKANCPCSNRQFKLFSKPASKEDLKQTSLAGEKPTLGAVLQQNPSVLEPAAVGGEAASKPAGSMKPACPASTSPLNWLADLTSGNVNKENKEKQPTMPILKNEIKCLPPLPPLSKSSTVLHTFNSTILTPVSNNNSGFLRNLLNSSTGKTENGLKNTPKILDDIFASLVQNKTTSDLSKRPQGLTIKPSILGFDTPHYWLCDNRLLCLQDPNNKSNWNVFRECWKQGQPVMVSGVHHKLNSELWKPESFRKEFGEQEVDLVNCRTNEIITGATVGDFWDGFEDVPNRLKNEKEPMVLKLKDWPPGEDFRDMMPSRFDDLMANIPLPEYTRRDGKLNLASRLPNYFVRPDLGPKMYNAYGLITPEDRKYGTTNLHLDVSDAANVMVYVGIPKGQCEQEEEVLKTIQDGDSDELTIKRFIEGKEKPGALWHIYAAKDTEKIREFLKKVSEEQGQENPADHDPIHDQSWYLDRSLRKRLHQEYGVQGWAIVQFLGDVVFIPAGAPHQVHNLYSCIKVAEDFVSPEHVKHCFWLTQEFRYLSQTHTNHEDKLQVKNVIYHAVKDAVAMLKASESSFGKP
Nature of the assay: High-content immunofluorescence (IF) assay, overexpressed full-length FLAG-tagged KDM in HeLa cells. Type of assay: cell-based. The note with it: HeLa cells overexpressing WT KDM3A, H3K9me2 mark, 24 h; read-out: KDM3A, in cells, EC50 by IF assay (head: IC50). On the procedure: (§1) HeLa cells (ATCC) were cultured at 37 °C and 5% CO2 in Minimal Essential Media—Eagle (Sigma-Aldrich, UK) supplemented with 10% heat-inactivated foetal calf serum (FCS) (Gibco, UK), and 1% L-glutaMAX (Gibco, UK) in T75 flasks (Sarstedt, UK) and passaged regularly with TrypLE (Life Technologies, UK) before cells reached confluence. On day 0, 7000 cells per well were plated on a 96-well clear bottom CellCarrier plate (PerkinElmer, UK). The next day the cells were transfected with Lipofectamine 3000 (ThermoFisher Scientific, UK) following the manufacturer’s instructions. Briefly, 0.1 µg of plasmid DNA (encoding for the respective demethylase) and 0.15 µL of Lipofectamine 3000 were diluted in separate tubes containing 5 µL OptiMEM. 0.15 µL of P3000 was added to the tube with the DNA. The two solutions were then mixed gently and allowed to incubate for 5 min at room temperature. Next, the DNA-lipid complex was added to the cells for 4 h at 37 °C and 5% CO2.
(§2) Compound dilutions were made in a 96-well PCR plate (Starlab, UK). The culture medium was supplemented with 0.4% DMSO so that the solvent concentration was maintained throughout. Compounds were serially diluted at a 1:2 or 1:3 dilution ratio. Next, the cell culture plate was removed from the incubator and the medium was gently aspirated and replaced with the fresh medium containing diluted compounds.
(§3) Then cells were rinsed once with PBS and blocked for 30 min at room temperature using 3% v/v foetal calf serum diluted in PBS.

The target in assay [2] is KDM6B (Homo sapiens, UniProt O15054). The description is as above. The note with it: HeLa cells overexpressing WT KDM6B, H3K27me3 mark, 24 h; read-out: KDM6B, in cells, EC50 by IF assay (head: IC50). Type of assay: cell-based. The protocol:
as §1, §2, §3

KDM6B, sequence (O15054 whole entry): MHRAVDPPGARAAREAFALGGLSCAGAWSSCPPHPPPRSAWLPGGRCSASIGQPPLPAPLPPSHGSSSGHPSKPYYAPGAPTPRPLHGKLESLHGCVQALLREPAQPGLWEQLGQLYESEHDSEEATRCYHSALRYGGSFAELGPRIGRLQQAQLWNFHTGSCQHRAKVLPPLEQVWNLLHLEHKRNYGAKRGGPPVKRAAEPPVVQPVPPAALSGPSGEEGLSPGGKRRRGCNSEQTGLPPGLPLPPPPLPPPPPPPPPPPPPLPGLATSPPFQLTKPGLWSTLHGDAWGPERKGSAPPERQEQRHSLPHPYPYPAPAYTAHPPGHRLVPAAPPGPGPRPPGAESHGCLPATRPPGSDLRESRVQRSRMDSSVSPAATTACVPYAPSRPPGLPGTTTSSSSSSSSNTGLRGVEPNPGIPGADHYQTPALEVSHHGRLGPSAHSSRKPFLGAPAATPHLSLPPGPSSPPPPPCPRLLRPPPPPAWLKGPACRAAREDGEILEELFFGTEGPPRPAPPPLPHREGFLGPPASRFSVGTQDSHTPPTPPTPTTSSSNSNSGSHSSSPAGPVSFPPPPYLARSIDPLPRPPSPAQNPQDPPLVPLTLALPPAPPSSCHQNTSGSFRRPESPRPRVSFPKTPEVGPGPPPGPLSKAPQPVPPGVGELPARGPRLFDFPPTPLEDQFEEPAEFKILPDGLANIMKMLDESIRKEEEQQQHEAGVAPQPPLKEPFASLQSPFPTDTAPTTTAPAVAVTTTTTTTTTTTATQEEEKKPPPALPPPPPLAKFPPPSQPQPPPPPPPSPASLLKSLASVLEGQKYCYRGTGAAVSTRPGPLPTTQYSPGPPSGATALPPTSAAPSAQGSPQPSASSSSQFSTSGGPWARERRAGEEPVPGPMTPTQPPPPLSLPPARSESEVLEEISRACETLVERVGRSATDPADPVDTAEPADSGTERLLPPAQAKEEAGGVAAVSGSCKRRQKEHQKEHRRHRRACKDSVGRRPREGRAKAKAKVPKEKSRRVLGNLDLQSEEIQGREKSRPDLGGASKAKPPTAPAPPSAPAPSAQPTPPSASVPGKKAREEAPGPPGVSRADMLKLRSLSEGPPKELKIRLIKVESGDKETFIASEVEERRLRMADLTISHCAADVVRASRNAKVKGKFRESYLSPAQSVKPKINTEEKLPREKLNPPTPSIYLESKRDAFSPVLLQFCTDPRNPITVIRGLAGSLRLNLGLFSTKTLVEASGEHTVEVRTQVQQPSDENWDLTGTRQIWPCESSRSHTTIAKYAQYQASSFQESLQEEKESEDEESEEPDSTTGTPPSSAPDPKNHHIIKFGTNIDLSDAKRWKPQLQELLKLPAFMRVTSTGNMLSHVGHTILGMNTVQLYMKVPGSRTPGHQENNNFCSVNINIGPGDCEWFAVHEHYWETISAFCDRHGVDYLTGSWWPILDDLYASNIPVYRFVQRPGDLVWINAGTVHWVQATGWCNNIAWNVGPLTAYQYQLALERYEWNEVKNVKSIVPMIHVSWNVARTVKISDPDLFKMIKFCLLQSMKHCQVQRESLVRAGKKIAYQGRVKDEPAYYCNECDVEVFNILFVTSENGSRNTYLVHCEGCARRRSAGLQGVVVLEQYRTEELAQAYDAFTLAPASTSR

A word on the EC50: it is the midpoint of the concentration-response curve. For the molecule `CCN(CCN(C)C)C(=O)CNCc1cncc(C(N)=O)c1` [KDOAM-32], the EC50 in assay [1] and in assay [2] was above 100 µM throughout.
